Experimental data as given in patent publication US9995731B2, “Construction of mitochondrial UQCRB mutant expressing cells and utilization of the cells for UQCRB assay system thereof” (INDUSTRY-ACADEMIC COOPERATION FOUNDATION, YONSEI UNIVERSITY, priority 2014, dated 2018).

Tests used:
Type in all cases: cell-based, human
[1] = system: UQCRB mutant stable cell line MT1; test: Cell proliferation assay (MTT colorimetric), UQCRB mutant stable cell line MT1; settings: MT1 cells, terpestacin 50 μM, with or without terpestacin for 3 days
Text: (§1) FIG. 4A-4F Pro-angiogenic activity of UQCRB mutant stable cell lines and its regulation by UQCRB inhibitors. (4A) Pro-angiogenic activity of a UQCRB mutant through conditioned media (CM)-induced invasion of HUVECs. (4B) Effect of a UQCRB mutation on cell migration; black lines indicate the edge of the gap. (4C) Optical density levels of the colony formation assay by using UQCRB mutant stable cell lines or controls. (4D, 4E) Growth of the UQCRB mutant stable cell lines regulated by the UQCRB inhibitors terpestacin (T) and A1938 (A). Cells were treated with terpestacin (50 μM) or A1938 (10 μM) in a time-dependent manner. Cell growth was measured by the MTT colorimetric assay. (4F) Suppression of elevated mROS by terpestacin in UQCRB MT1 cells. mROS were measured using MitoSOX™. Terpestacin (20 μM) was applied to UQCRB MT1 cells for 1 h; scale bars indicate 20 μm. […]
(§2) Control and mutant stable cell lines were seeded onto 96-well plates and incubated for 24-72 h. Proliferation of the cells was measured using a 3-(4,5-dimethylthiazol-2-yl)-2,5-diphenyltetrazolium bromide (MTT; Sigma-Aldrich, Saint Louis, Mo.) colorimetric assay.
(§3) Since UQCRB is a molecular target of the natural compound terpestacin [6], we examined the effect of terpestacin on UQCRB mutant stable cell lines. To test whether terpestacin affects MT1 and MT2, cell growth was measured with or without terpestacin for 3 days. […]

[2] = system: UQCRB mutant stable cell line MT2; test: Cell proliferation assay (MTT colorimetric), UQCRB mutant stable cell line MT2; settings: MT2 cells, terpestacin 50 μM, with or without terpestacin for 3 days
Text: as §1, §2, §3

Control (HEK293) cells = test: Cell proliferation assay (MTT colorimetric), control cells; settings: terpestacin 50 μM, 3 days
Text: as §1, §2, §3

UQCRB MT1 cells = test: Measurement of mROS levels with MitoSOX in UQCRB MT1 cells; settings: terpestacin 20 μM for 1 h
Text: as §1, with “MitoSOX™.” for “MitoSOX™. Terpestacin (20 μM) was applied to UQCRB MT1 cells for 1 h; scale bars indicate 20 μm.”
mROS levels were assessed by the red fluorescence mitochondrial superoxide indicator MitoSOX™ (Invitrogen, Grand Island, N.Y.). […] Results of MitoSOX™ and Hoechst staining were analyzed under a confocal microscope (Zeiss LSM 710; Carl Zeiss Microlmaging, Thornwood, N.Y.), and the fluorescence intensity of MitoSOX™ was measured by ImageJ.
as §3

## C/C1=C\C[C@]2(C)C(=O)C(O)=C([C@H](C)CO)[C@H]2C/C=C(\C)[C@@H](O)CC/C(C)=C/CC1 [terpestacin]
[1]
  effect on proliferation (cell growth, MTT): remarkably inhibited proliferation
[2]
  effect on proliferation (cell growth, MTT): remarkably inhibited proliferation
Control (HEK293) cells
  effect on proliferation (cell growth, MTT): did not affect the proliferation
UQCRB MT1 cells
  effect on elevated mROS (MitoSOX fluorescence): attenuated mROS induction in MT1 to a basal level
